Earlier results in patent publication US6361800B1 (Cooper Concepts, Inc., priority 2000, dated 2002).
Where two headings read alike, the source gives them in different places.

Details: 100 I.U. taken for two years or longer

In the case of vitamin E, the “reduced deaths of coronary artery disease” value (39,910 male health professionals) is given as 37% and the “reduced deaths of coronary artery disease” value (87,245 nurses) is given as 40%.
